Data on five compounds can be found in patent US8906829B2, “Synergistic algicidal compositions including hydrazone derivatives and copper” (Dow AgroSciences LLC, priority 2010, dated 2014).

Data set [1] deals with Synechocystis sp. strain 6803. Description: Growth inhibition of Synechocystis by hydrazones and isolated metal-hydrazone complexes, BG-11 Cu minus medium (Example 12). Format: cell-based. The following applies: Synechocystis, Test Concn. 0.05 μg/ml, read-out: Hydrazone % Inhn. As to the method: In vitro toxicity assays against the cyanobacterium (blue-green alga) Synechocystis sp. strain 6803 were conducted using BG-11 medium except that copper micronutrient, normally included as CuSO4.5H2O, was omitted. The medium, termed BG-11 Cu minus, was prepared by dissolving 1.5 g NaNO3, 40 mg K2HPO4, 6 mg citric acid, 1 mg Na2EDTA and 20 mg Na2CO3 in 1 liter of milli Q water and treating the solution with 0.5 g Chelex 100 resin (Bio-Rad Analytical grade, 50-100 mesh, sodium form, cat#142-2822) by stifling at room temperature for 1 h. 900 mL were decanted and 67.5 mg MgSO4.7H2O, 32.4 mg […], 5.4 mg ferric ammonium citrate and 0.9 mL trace metal mix A5 without copper (2.86 g H3BO3, 1.81 g MnCl2.4H2O, 222 mg ZnSO4.7H2O, 390 mg Na2MoO4.2H2O and Co(NO3)2.6H2O in 1 L Milli Q water) was added. The pH was adjusted to 7.1 and the medium was filter-sterilized. Medium containing copper (BG-11 Cu plus) was prepared by adding CuCl2.2H2O to the BG-11 Cu minus medium at 0.2 μM. Test compounds were dissolved in dimethylsulfoxide (DMSO) at 2 mg/mL then appropriate dilutions in BG-11 Cu minus and BG-11 Cu plus media were prepared in sterilized microcentrifuge tubes. 100 μL aliquots were dispensed into flat-bottomed 96-well microtiter plates. Synechocystis was maintained under 24 h of light on BG-11 agar plates at 27° C. A loopful of cells was added to 50 mL of BG-11 Cu minus growth medium and the culture was incubated with shaking at 200 rpm at 27° C. for 24 h. The culture (10 to 20 mL aliquot) was centrifuged in a bench centrifuge at 2400 rpm for 2 min. The resulting cell pellet was resuspended in 5 mL sterile milli Q water (which had been treated with Chelex 100 resin using 0.5 g resin per liter of water by stirring at room temperature for 1 h), and recentrifuged. The cells were resuspended in BG-11 Cu minus medium, and the suspension adjusted to 4×10^5 spores per mL. Microtiter plates containing compounds as described above were inoculated with 100 μL of this cell suspension and the plates incubated at 27° C. for 72 h before assessing algal growth by measuring light scattering in a NepheloStar plate reader. Growth inhibition was determined by comparing growth in the presence of test compound with growth in control wells lacking test compound. Hydrazones and their isolated metal complexes were compared with respect to their in vitro activity toward C. reinhardtii and the cyanobacterium (blue-green alga) Synechocystis sp. strain 6803. Metal complexes of hydrazones were prepared by precipitation from ethanol with various metal salts at 1:1, 2:1 or 3:1 molar ratios, as described in general by Ainscough, Brodie, Dobbs, Ranford, and Waters (Inorganica Chimica Acta 1998, 267, 27-38, which is expressly incorporated by reference herein). In vitro assays against Synechocystis were conducted as described in Example 11 using BG-11 Cu minus medium. Growth inhibition was determined by comparing growth in the presence of test compound with growth in control wells lacking test compound.

Another data set relates to C. reinhardtii. In words: Growth inhibition of C. reinhardtii by hydrazones and isolated metal-hydrazone complexes, TAP Cu minus medium (Example 12). In kind it is cell-based, Chlamydomonas reinhardtii. The following applies: for inhibition of growth at 1 µg/mL: Chlamydomonas reinhardtii, parent hydrazone 1 μg/mL, read-out: Hydrazone % Inhn. On the procedure:
In vitro toxicity assays against C. reinhardtii CC-1928 (wild type mt+137c green in dark subclone) obtained from the Chlamydomonas Resource Center at Duke University were conducted using TAP liquid growth medium described by Gorman and Levine Proc. Natl. Acad. Sci. USA 1965, 54, 1665-1669 except that CuSO4.5H2O, normally included as a component of Hutner's trace element stock solution (Hutner et al. Proc. Am. Philos. Soc. 1950, 94, 152-170), was omitted. The TAP medium lacking Cu (TAP Cu minus) was prepared by adding 400 mg NH4Cl, 10 mL of 100× Tris-Acetate (242 g Tris-base and 100 mL glacial acetic acid in 1000 mL milli Q water), and 8.3 mL of 120.5× phosphate buffer (14.34 g K2HPO4 and 7.26 g KH2PO4 in 1000 mL milli Q water) to milli Q water to make a total volume of 1 liter. The medium was treated with 0.5 g Chelex 100 resin (Bio-Rad Analytical grade, 50-100 mesh, sodium form, cat#142-2822) by stirring at room temperature for 1 hour. 900 mL were decanted and 45.9 mg of CaCl2.2H2O, 90 mg of MgSO4.7H2O and 0.9 mL Hutner's trace elements lacking CuSO4.5H2O were added and the solution was filter-sterilized. Medium containing copper (TAP Cu plus) was prepared by adding CuCl2.2H2O to the TAP Cu minus medium at 20 μM. Test compounds were dissolved in dimethylsulfoxide (DMSO) at 2 mg/mL then dilutions in TAP Cu minus and TAP Cu plus media were prepared in sterilized microcentrifuge tubes at 2 μg/mL. 100 μL aliquots of diluted compound were dispensed into flat-bottomed 96-well microtiter plates. C. reinhardtii was maintained under 12 h of light on TAP agar plates at 18° C. A loopful of cells was added to 50 mL of TAP Cu minus medium and the culture incubated with shaking at 200 rpm at 27° C. for 24 h. The culture (10 to 20 mL aliquot) was centrifuged in a bench centrifuge at 2000 rpm for 2 min. The resulting cell pellet was resuspended in 5 mL sterile milli Q water (which had been treated with Chelex 100 resin using 0.5 g resin per liter of water by stirring at room temperature for 1 h), and recentrifuged. The cells were resuspended in TAP Cu minus medium, and the suspension adjusted to 2×10^5 spores per mL. Microtiter plates containing compounds as described above were inoculated with 100 μL of this cell suspension and the plates incubated at 27° C. for 48 h before assessing algal growth by measuring light scattering in a NepheloStar plate-reader. Growth inhibition was determined by comparing growth in the presence of test compound with growth in control wells lacking test compound. Hydrazones and their isolated metal complexes were compared with respect to their in vitro activity toward C. reinhardtii and the cyanobacterium (blue-green alga) Synechocystis sp. strain 6803. Metal complexes of hydrazones were prepared by precipitation from ethanol with various metal salts at 1:1, 2:1 or 3:1 molar ratios, as described in general by Ainscough, Brodie, Dobbs, Ranford, and Waters (Inorganica Chimica Acta 1998, 267, 27-38, which is expressly incorporated by reference herein). In vitro assays against C. reinhardtii were conducted as described in Example 10 using TAP Cu minus medium. Growth inhibition was determined by comparing growth in the presence of test compound with growth in control wells lacking test compound. Results for growth inhibition of C. reinhardtii by hydrazones and corresponding isolated metal complexes (each at 1 μg/mL) are shown in Table 6.

A further data set concerns C. reinhardtii CC-1928. Description: Effect of copper on activity of hydrazones: in vitro growth inhibition of C. reinhardtii in TAP Cu minus / TAP Cu plus medium (Example 10). In kind it is cell-based, Chlamydomonas reinhardtii. The following applies: test compound 1 μg/mL, 48 h; for inhibition of growth at 1 µg/mL: Chlamydomonas reinhardtii, TAP Cu minus medium, read-out: % Inhn. Minus Copper Observed; for % Inhn. Plus Copper Observed: TAP Cu plus medium (CuCl2). The method, boiled down: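 Washed cells (suspension 2×10^5 spores per mL) added to compound at 1 μg/mL in Chelex-treated TAP Cu minus or TAP Cu plus (20 μM CuCl2). After 48 h at 27 °C, growth read by light scattering; % inhibition vs compound-free wells, plus-Cu predicted values by Colby formula from minus-Cu data.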

`O=C(N/N=C/c1cc(C(F)(F)F)ccc1O)c1ccccc1` [Compound 68] came in with a melting point of 214 to 217 °C. In addition, in data set [1], the inhibition of growth at 0.05 µg/mL came out at 16%.
Regarding `C/C(=N\NC(=O)c1cccc(C)c1)c1cc(Cl)cc(Cl)c1O.[Cl-].[Cl-].[Cu+2]` [Compound 90], the “Complex % Inhn.” value with C. reinhardtii (isolated metal complex 1 μg/mL) is recorded as 49%.
`O=C(N/N=C/c1cc(Cl)cc(C(F)(F)F)c1O)c1ccc(Cl)cc1` [Compound 66]: the melting point is 232 to 234 °C. Also, the inhibition of growth at 1 µg/mL with C. reinhardtii is -4%. Besides, in the data set on C. reinhardtii CC-1928, the inhibition of growth at 1 µg/mL is -4% and the “% Inhn. Plus Copper Observed” value was determined as 97%.
In the case of `C/C(=N\NC(=O)c1cccc(Cl)c1)c1cc(Cl)cc(Cl)c1O` [Compound 65], the melting point fell in the range of 245 to 246 °C. The inhibition of growth at 1 µg/mL with C. reinhardtii was -5%. In the data set with C. reinhardtii CC-1928, the inhibition of growth at 1 µg/mL was -5% and the “% Inhn. Plus Copper Observed” value was found to be 97%.
With `O=C(N/N=C/c1cc(Cl)cc(Cl)c1O)c1ccc(Cl)cc1` [Compound 64], the inhibition of growth at 1 µg/mL with C. reinhardtii is -5%. Besides, in the data set on C. reinhardtii CC-1928, the inhibition of growth at 1 µg/mL was -5% and the “% Inhn. Plus Copper Observed” value is recorded as 97%.
